Reference: ChEMBL document CHEMBL1138068 (J Med Chem, 2006)

Legend:
Cytochrome P450 2D6 = Cytochrome P450 2D6 (Homo sapiens, UniProt P10635); experiment: Inhibition of CYP2D6; assay type: ADME
[1] = target: Neuronal acetylcholine receptor subunit alpha-7 (Rattus norvegicus, UniProt Q05941); experiment: Displacement of [125I]alpha-BTX from alpha-7 nAChR in rat hippocampus membrane; assay type: cell membranes
Chain of Neuronal acetylcholine receptor subunit alpha-7 (Q05941 whole entry): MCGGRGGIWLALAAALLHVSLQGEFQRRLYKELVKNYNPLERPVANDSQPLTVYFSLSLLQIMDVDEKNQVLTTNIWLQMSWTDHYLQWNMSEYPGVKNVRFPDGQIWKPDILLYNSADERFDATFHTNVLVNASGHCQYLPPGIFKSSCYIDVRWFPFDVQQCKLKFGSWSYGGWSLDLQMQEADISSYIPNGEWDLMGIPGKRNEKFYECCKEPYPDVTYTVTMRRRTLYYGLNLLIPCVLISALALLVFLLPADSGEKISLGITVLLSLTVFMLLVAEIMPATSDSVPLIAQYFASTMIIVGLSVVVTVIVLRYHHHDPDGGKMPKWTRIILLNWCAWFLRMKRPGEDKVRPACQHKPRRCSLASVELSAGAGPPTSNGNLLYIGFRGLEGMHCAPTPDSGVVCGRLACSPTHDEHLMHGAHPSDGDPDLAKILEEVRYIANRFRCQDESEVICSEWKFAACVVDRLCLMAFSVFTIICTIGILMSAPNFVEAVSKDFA

Chain of Cytochrome P450 2D6 (P10635 whole entry): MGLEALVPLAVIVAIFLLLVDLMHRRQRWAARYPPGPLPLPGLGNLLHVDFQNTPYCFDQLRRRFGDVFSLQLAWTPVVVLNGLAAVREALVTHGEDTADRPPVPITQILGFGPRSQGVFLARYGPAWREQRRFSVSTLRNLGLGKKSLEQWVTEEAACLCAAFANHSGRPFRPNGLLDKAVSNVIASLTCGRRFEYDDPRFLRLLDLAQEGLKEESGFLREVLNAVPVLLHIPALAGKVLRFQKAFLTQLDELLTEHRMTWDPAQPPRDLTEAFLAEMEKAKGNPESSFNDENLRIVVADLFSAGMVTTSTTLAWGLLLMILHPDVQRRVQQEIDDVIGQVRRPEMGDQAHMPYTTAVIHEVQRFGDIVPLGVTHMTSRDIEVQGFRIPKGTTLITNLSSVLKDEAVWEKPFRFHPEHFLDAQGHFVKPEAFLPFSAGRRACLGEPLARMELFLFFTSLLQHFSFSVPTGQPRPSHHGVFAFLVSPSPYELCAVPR

SMILES | IC50 (Cytochrome P450 2D6) | Ki [1]
Cc1cc2cc(N3C[C@@]4(CN5CCC4CC5)OC3=O)ccc2o1 | > 30000 nM | 38 nM
O=C1O[C@@]2(CN3CCC2CC3)CN1c1ccc2c(c1)CCC2 |  | 200 nM
CCc1cc2cc(N3C[C@@]4(CN5CCC4CC5)OC3=O)ccc2s1 | > 30000 nM | 135 nM
Cc1nc2cc(N3C[C@@]4(CN5CCC4CC5)OC3=O)ccc2s1 |  | 60 nM
O=C1O[C@@]2(CN3CCC2CC3)CN1c1ccc(Br)s1 | 9000 nM | 4 nM
O=C1O[C@@]2(CN3CCC2CC3)CN1c1ccc2occ(Br)c2c1 | > 30000 nM | 4 nM
